Results as given in US20100221228A1, “y134.5 Deficient HSV and the MAPK Pathway” (The University of Chicago, priority 2006, published 2010).

Legend:
[1] = system: HT1080 cells infected with R3616; experiment: MEK inhibitor study: immunoblotting of viral proteins and phospho-PKR; assay type: cell-based, human
Protocol: (§1) Inhibitor studies—For experiments employing the known MEK inhibitor, PD98059, HT1080 cells were starved over night in serum-free medium and then exposed to 40 μM of PD98059 (EMD Biosciences, San Diego, Calif.), or DMSO (1:1000 dilution) 6 hours prior to, and during, infection. At 12 hours post-infection, whole cell lysates were created as described above for immunoblotting.
To determine if MEK mediates the observed mutant Ras-dependent suppression of PKR activation and resultant accumulation of viral proteins in HT1080 cells infected with mutant virus R3616, the relative expressions of representative a (ICP27), β (U142) and γ2 (glycoprotein C) viral proteins in cells treated with a specific chemical inhibitor of MEK-1 (PD98059) were compared. Replicate cultures of HT1080 cells were serum-starved overnight prior to exposure to equal volumes of DMSO or PD98059 (40 μM) for 6 hours prior to infection with R3616 mutant virus (10 PFU/cell). DMSO or drug treatment was then continued until the cells were harvested at 12 hours post-infection. The cells were then lysed and the lysates were subjected to electrophoresis in denaturing polyacrylamide gels, followed by transferring to PVDF membranes and reacting with antibody to ICP27, UL42, or gC. […] To test whether the decrease in the accumulation of gC correlated with activation of PKR, the electrophoretically separated lysates were also probed with antibody to the auto-phosphorylated form of PKR (P-Thr446). The presence of PD98059 prior to, and during, infection with R3616 […] the amount of activated PKR in HT1080 cells (FIG. 6, panel B).

[2] = system: HT1080 cells infected with R3616; experiment: MEK inhibitor study: R3616 yield in HT1080 cells with PD98059 or DMSO; assay type: cell-based, human
Protocol: as §1
Finally, to determine if MEK inhibition affects viral replication, DMSO or PD98059 (40 μM) was added to replicate cultures of HT1080 cells 6 hours prior to, and during, infection with R3616 (1 PFU/cell).

[3] = PD98059 40 μM, R3616 10 PFU/cell, 12 hours post-infection

COc1cccc(-c2cc(=O)c3ccccc3o2)c1N [PD98059]
amount of activated PKR (P-Thr446) ([1]; PD98059 40 μM prior to and during infection with R3616): increased
accumulation of ICP27 and UL42 proteins [1, 3]: slight effect
amounts of gC that accumulated [1, 3]: very dramatic decrease
yield of R3616 lower than in the presence of DMSO ([2]; PD98059 40 μM): approximately 15 fold
yield of R3616 mutant virus ([2]; in the presence of PD98059 40 μM, 6 hours prior to and during infection, 1 PFU/cell, 36 hours): 1.67×10^5 PFU/ml
